Some test systems named below: LOX IMVI; SF-539; SN12C; UACC-257; HCT-15; ACHN; HOP-62; OVCAR-4; OVCAR-5; IGROV-1; KM-20L2; HT-29; A498; SF-295; UO-31; OVCAR-3; SF-268; M14; OVCAR-8; SR.
Holding throughout (assay): DTP human tumour cell line panel, 48 h

Structures are written as SMILES.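 Interpolation was linear, between the two tested concentrations surrounding the appropriate level; five concentrations were tested over 48 hours in 96-well plates. At the GI50, growth is halved.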 Active and inactive are the calls of the source. Cut-off read from the data, not from the text of the source: active = GI50 up to about 1.1 µM and inactive = higher.

Usually GI50 stands for the concentration that inhibits growth by half. As to `CC(=O)NC1=C(C)C(=O)c2c(nc3n2CCC3O)C1=O` (stereo not given), the GI50 was 29.7 µM (inactive) in the test with LOX IMVI; 24.4 µM (inactive) with SF-539; 37.3 µM (inactive) with SN12C; 26.3 µM (inactive) in the test on UACC-257; more than 100 µM in the test on HCT-15; > 100 µM (inactive) in the test on ACHN. In addition, the GI50 was > 100 µM (inactive) in the test on HOP-62; 13.6 µM (inactive) in the test with OVCAR-4; > 64.3 µM (inactive) with OVCAR-5; > 54.2 µM (inactive) in the test on IGROV-1; > 72.1 µM (inactive) in the test with KM-20L2; > 100 µM (inactive) with HT-29. For the same compound, the GI50 with A498 is > 100 µM (inactive); with SF-295, > 100 µM (inactive); in the test with UO-31, > 100 µM (inactive); with OVCAR-3 it was 10.8 µM (inactive); in the test with SF-268, 34.8 µM (inactive); with M14, > 100 µM (inactive). In addition, the GI50 is 20.4 µM (inactive) in the test on OVCAR-8 and 9.46 µM (inactive) in the test on SR.

As for `O=C1N(c2ccccc2)C2(O)C(=O)c3ccccc3C2(O)N1c1ccccc1` (stereo not given), the GI50 is > 100 µM (inactive) in the test with LOX IMVI; > 100 µM (inactive) in the test on SF-539; > 100 µM (inactive) in the test on SN12C; > 100 µM (inactive) in the test with UACC-257; more than 100 µM with HCT-15; > 100 µM (inactive) with ACHN. For the same compound, the GI50 in the test with HOP-62, in the test with OVCAR-4, in the test on OVCAR-5, in the test on IGROV-1, in the test on KM-20L2 and in the test with HT-29 was > 100 µM (inactive) in each case. The GI50 in the test on A498, in the test with SF-295, with UO-31, with OVCAR-3, in the test on SF-268 and in the test with M14 was > 100 µM (inactive) each time. In addition, the GI50 in the test on OVCAR-8 and with SR was > 100 µM (inactive) throughout.

On to `COc1cc2c(c(OC(C)=O)c1OC(C)=O)-c1ccc(SC)c(=O)cc1C(NC(C)=O)CC2` (stereo not given), for which the GI50 with LOX IMVI is 1.13 µM (inactive); with SF-539 it was 0.494 µM (active); in the test with SN12C, 4.52 µM (inactive); with UACC-257, 1.07 µM (active); in the test with HCT-15, 31.7 µM; in the test with ACHN, 24 µM (inactive). For the same compound, the GI50 in the test on HOP-62 was 7.59 µM (inactive); in the test on OVCAR-4 it was 9.82 µM (inactive); in the test on OVCAR-5, > 50.1 µM (inactive); in the test with IGROV-1, 4.45 µM (inactive); in the test on KM-20L2, 1.85 µM (inactive); in the test with HT-29, 2.04 µM (inactive). Besides, the GI50 was 4.83 µM (inactive) with A498; 2.23 µM (inactive) in the test with SF-295; 89.1 µM (inactive) in the test on UO-31; 0.5 µM (active) with OVCAR-3; 1.38 µM (inactive) in the test with SF-268; 2.96 µM (inactive) in the test on M14. The GI50 with OVCAR-8 is 3.66 µM (inactive); with SR, 0.964 µM (active).

On to `CC(C)C(Sc1nc(-c2ccccc2)c(-c2ccccc2)[nH]1)C(=O)NNC(=S)Nc1ccccc1` (stereo not given), for which the GI50 with LOX IMVI is 15.9 µM (inactive); in the test with SF-539 it was 21.4 µM (inactive); in the test with SN12C, 17.5 µM (inactive); in the test on UACC-257, 16.9 µM (inactive); with HCT-15, 17.9 µM; in the test on ACHN, 25.1 µM (inactive). The GI50 is 24.1 µM (inactive) in the test on HOP-62; 22.5 µM (inactive) with OVCAR-4; 16.7 µM (inactive) in the test with OVCAR-5; 18.4 µM (inactive) in the test with IGROV-1; 18.4 µM (inactive) in the test on KM-20L2; 17.7 µM (inactive) in the test with HT-29. In addition, the GI50 is 26 µM (inactive) with A498; 16 µM (inactive) in the test on SF-295; 17.8 µM (inactive) in the test with UO-31; 13.1 µM (inactive) in the test with OVCAR-3; 24.5 µM (inactive) in the test on SF-268; 16.9 µM (inactive) in the test on M14. Also, the results for the GI50 in the test with OVCAR-8 and in the test with SR were 21.5 µM (inactive) and 5.61 µM (inactive), respectively.

Consider `Cc1cc(NS(=O)(=O)c2ccc(NC(=O)c3cccc4c(Nc5ccc(S(=O)(=O)N=C(N)N)cc5)c5ccccc5nc34)cc2)no1`, for which the GI50 in the test on LOX IMVI is > 100 µM (inactive); in the test on SF-539, > 100 µM (inactive); in the test with SN12C, > 100 µM (inactive); with UACC-257 it was > 100 µM (inactive); in the test with HCT-15, more than 100 µM; in the test on ACHN, > 100 µM (inactive). The GI50 in the test on HOP-62, with OVCAR-4, with OVCAR-5, with IGROV-1, in the test on KM-20L2 and in the test with HT-29 was > 100 µM (inactive) in each case. For the same compound, the GI50 with A498, in the test on SF-295, in the test on UO-31, in the test with OVCAR-3, in the test on SF-268 and in the test on M14 was > 100 µM (inactive) in each case. Also, the GI50 with OVCAR-8 and with SR was > 100 µM (inactive) in each case.

Take `CS(=O)(=O)OCCCCOS(C)(=O)=O` [BUSULFAN]: the GI50 was 221 µM (inactive) in the test on LOX IMVI; 233 µM (inactive) with SF-539; 233 µM (inactive) in the test on SN12C; 183 µM (inactive) with UACC-257; 219 µM with HCT-15; 172 µM (inactive) in the test with ACHN. Also, the GI50 was 187 µM (inactive) in the test on HOP-62; 214 µM (inactive) in the test on OVCAR-4; > 250 µM (inactive) in the test on OVCAR-5; > 212 µM (inactive) with IGROV-1; > 234 µM (inactive) in the test on KM-20L2; 247 µM (inactive) in the test with HT-29. Also, the GI50 is 233 µM (inactive) with A498; 210 µM (inactive) with SF-295; 244 µM (inactive) in the test on UO-31; > 250 µM (inactive) in the test on OVCAR-3; 179 µM (inactive) in the test on SF-268; 236 µM (inactive) with M14. Further, the GI50 was 237 µM (inactive) in the test on OVCAR-8 and 87.9 µM (inactive) in the test with SR.

The values are drawn from ChEMBL document CHEMBL1201862, “PubChem BioAssay data set” (2004).
